Where “and” joins values, the source holds several entries; their conditions need not be identical. Equal entries are not always repeated. Entries after “also recorded” stand apart in the source; their conditions may differ.
Key:
honeybee Para channel = honeybee Para channel (Apis mellifera, UniProt C9D7C5); assay: Two-microelectrode voltage-clamp of Xenopus oocytes co-expressing Para channel and TipE; pyrethroid-induced tail currents; format: cell-based; settings: for tail current induction: after conditioning pulses (-80mV to -20mV, 100 Hz), Para + TipE; for Hill coefficient: Hill fit of dose-response curve of tail current
honeybee Para channel, sequence (C9D7C5 1-2044): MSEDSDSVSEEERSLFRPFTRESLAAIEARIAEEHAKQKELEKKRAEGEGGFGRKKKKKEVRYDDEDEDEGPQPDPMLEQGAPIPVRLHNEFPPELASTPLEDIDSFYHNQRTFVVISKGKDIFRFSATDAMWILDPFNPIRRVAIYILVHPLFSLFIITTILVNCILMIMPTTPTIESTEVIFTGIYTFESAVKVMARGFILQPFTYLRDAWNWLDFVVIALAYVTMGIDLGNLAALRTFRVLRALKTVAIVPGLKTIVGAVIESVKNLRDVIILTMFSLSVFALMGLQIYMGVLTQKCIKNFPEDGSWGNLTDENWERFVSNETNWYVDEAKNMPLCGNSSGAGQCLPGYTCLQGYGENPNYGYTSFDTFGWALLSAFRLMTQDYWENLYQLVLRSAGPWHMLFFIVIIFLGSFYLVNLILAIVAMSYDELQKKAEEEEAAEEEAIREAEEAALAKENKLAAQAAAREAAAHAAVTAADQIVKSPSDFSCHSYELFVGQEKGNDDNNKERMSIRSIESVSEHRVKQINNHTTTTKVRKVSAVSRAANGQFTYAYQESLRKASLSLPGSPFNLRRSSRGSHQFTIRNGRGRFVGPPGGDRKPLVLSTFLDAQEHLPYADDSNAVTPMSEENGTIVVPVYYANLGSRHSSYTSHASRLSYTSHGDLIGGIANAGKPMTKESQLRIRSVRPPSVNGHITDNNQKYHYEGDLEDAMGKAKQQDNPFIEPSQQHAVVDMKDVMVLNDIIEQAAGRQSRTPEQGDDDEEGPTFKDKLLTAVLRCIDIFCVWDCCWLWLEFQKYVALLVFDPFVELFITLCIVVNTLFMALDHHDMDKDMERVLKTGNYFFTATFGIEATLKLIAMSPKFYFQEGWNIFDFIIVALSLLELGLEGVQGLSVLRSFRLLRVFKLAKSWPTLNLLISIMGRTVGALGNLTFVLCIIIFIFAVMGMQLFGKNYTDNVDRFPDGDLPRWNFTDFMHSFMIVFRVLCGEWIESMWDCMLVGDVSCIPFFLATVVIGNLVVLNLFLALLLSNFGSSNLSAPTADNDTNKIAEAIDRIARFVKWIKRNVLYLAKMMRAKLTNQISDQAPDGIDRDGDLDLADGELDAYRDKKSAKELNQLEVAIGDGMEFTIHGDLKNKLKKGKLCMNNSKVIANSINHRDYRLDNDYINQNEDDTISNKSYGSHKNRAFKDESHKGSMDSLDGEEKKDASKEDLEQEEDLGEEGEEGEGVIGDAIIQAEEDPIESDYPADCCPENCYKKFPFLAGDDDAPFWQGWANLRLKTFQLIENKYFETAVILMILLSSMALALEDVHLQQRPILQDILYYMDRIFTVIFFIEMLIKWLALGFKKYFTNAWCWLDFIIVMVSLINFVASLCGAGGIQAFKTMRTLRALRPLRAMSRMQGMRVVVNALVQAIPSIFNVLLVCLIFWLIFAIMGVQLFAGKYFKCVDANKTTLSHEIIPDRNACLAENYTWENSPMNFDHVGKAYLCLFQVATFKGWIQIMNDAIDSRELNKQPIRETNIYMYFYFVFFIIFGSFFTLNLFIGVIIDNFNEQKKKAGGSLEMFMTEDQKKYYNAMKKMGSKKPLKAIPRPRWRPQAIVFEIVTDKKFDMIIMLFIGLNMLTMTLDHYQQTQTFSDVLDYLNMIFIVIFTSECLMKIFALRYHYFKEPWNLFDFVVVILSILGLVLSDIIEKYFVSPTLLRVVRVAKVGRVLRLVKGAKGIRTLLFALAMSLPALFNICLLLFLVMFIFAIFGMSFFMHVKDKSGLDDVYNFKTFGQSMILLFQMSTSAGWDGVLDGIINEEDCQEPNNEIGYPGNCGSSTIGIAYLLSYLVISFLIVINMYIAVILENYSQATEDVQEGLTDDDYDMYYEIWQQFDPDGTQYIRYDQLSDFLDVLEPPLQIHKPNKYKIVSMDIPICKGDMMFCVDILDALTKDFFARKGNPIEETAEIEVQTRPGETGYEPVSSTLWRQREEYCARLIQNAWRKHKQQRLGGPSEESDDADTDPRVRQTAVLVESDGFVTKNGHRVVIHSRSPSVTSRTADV
Protocol: Xenopus oocytes were handled in accordance with the principles and guidelines of the Université Laval animal protection committee and the Canadian Council on Animal Care. […] They were then treated with 2 mg/ml collagenase (Collagenase type 1A from Clostridium histolyticum, Sigma) in OR2 solution for 1 h. They were then incubated for at least 1 h at 18°C in OR3 solution. Stage IV and V oocytes were microinjected with mRNA corresponding to the Para channel and the selected regulatory subunit (1 µg/µl for Para and 0.3 µg/µl for regulatory subunits, 50 nl/oocyte). The injected oocytes were incubated at 18°C in OR3 solution for at least 12 h before taking recordings.
Macroscopic currents from mRNA-injected oocytes were recorded in Ringer's solution using the two-microelectrode voltage-clamp technique. The membrane potential for the two-microelectrode voltage-clamp technique was controlled using a Warner oocyte clamp (Warner Instrument Corp.). The currents were filtered at 5 kHz (-3 dB; four-pole Bessel filter). The headstage of the Warner amplifier was attached to a plastic pool containing a 3M NaCl solution through a silver chloride wire connected to the bath solution using an agar bridge. The bridge contained 3% agar (w/v), 500 mM NMDG, and 10 mM HEPES (pH 7.4) and was threaded with a thin platinum/iridium wire to lower high-frequency impedance.
The pH was adjusted to 7.6 at 22°C using 1 M NaOH.
The dose-response curves obtained from these calculations were fitted to a Hill curve using the following equation: M = (MMax)/(1 + ((EC50/dose))^h), [formula] where h is the Hill coefficient, Mmax is the maximal fraction of channels affected, EC50 is the half-maximal effective concentration, and dose is the concentration at which the observation was made.
Current decay and tail current kinetics were fitted to the following equation when a single exponential was used: [formula] and to the following equation when double exponential was used: [formula] where y0 is the initial value, A is the weight of the exponential, and τ is the time constant of the exponential.

[1] = molecular target: sodium current of honeybee antennal olfactory receptor neurons; settings: Kadala A et al. 2011; cited from earlier work
drosophila Para channel = drosophila Para channel (Drosophila melanogaster, UniProt P35500); settings: read-out: EC50 for the drosophila channel; Vais H et al. 2003, ATX-II used to inhibit inactivation; cited from earlier work
drosophila Para channel, sequence (P35500 whole entry): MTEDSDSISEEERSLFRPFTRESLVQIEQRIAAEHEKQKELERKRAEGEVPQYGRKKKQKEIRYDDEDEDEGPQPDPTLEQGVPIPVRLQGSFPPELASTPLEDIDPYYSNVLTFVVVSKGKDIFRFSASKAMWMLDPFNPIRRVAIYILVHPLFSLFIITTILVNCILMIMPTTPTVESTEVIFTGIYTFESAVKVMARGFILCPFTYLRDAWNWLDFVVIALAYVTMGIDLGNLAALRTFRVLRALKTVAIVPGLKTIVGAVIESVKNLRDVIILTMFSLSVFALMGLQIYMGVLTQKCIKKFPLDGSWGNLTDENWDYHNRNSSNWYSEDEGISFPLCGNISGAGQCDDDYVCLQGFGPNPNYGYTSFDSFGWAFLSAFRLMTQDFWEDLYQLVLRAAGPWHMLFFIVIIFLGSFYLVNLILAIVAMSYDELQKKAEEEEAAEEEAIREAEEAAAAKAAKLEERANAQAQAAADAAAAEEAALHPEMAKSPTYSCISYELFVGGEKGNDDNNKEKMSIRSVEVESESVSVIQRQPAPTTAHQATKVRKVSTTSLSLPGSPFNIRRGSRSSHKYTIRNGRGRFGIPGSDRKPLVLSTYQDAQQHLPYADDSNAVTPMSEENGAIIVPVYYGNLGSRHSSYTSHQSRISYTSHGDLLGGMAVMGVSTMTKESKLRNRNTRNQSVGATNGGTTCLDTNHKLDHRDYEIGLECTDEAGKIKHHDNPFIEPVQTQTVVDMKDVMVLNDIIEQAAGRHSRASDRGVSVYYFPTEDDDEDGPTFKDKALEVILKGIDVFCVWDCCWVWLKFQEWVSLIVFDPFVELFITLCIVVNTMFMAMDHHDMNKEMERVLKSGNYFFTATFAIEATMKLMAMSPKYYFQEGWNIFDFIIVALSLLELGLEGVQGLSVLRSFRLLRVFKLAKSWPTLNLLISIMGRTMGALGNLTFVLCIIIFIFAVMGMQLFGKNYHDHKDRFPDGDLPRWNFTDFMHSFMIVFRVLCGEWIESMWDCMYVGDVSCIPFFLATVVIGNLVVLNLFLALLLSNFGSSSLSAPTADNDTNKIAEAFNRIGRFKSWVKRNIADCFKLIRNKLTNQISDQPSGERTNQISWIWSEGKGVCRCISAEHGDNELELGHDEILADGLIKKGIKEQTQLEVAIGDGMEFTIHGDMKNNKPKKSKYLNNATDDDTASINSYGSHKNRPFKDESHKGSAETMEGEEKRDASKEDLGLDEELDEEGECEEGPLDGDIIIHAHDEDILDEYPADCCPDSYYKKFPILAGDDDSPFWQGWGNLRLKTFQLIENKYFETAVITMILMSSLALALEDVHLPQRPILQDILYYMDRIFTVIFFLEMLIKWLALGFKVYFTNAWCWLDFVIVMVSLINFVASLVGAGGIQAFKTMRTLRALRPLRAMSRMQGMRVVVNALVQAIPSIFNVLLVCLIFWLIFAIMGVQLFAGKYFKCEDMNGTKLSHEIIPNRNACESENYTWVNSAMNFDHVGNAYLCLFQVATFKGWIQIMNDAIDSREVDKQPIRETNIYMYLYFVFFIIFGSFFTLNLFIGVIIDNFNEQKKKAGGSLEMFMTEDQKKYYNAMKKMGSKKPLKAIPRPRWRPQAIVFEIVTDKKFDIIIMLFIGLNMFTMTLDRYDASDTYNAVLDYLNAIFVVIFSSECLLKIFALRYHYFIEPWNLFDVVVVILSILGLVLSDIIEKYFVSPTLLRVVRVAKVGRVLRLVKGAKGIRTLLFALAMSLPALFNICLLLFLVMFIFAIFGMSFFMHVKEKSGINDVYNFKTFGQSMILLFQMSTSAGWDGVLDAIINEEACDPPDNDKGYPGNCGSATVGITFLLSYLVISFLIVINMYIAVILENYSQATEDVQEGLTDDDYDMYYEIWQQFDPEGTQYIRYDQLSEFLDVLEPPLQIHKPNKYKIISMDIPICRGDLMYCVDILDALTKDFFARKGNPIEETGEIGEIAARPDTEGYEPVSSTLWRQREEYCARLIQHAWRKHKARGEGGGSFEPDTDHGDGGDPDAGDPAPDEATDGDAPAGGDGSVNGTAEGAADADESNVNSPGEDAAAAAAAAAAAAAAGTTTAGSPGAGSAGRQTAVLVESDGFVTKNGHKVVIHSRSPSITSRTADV

| SMILES | shifts in activation, inactivation, or recovery from inactivation (honeybee Para channel; 10 µM in extracellular medium, Para co-expressed with TipE) | tail current induction (honeybee Para channel; 10 µM) | number of conditioning pulses at which the maximal effect is reached (honeybee Para channel; 10 µM, tail current amplitude) [pulses] | Hill coefficient (honeybee Para channel) | time constant of deactivation of tail currents (single exponential) (honeybee Para channel; single exponential fit) [s] | inversion (reversal potential) of tail current (honeybee Para channel; tail current after 200 conditioning pulses, linear voltage-dependence) | EC50 [1] [µM] | EC50 (drosophila Para channel) [nM] | relative weight of the slow component of tail current deactivation (honeybee Para channel; double exponential fit) [%] | time constant of tail current deactivation, first exponential (honeybee Para channel; double exponential fit) [s] | time constant of tail current deactivation, second exponential (honeybee Para channel; double exponential fit) [s] | EC50 (honeybee Para channel; fraction of channels bound vs dose, Hill fit, 1700 conditioning pulses, Para + TipE in oocytes, read-out: half maximal effective concentration (EC50)) |
| --- | --- | --- | --- | --- | --- | --- | --- | --- | --- | --- | --- | --- |
| CC1(C)C(C=C(Cl)Cl)C1C(=O)OCc1cccc(Oc2ccccc2)c1 (centres unmarked) [permethrin] | no significant effect; also recorded: did not induce statistically significant shifts | induced tail currents | 200 | 0.8263 and 0.83 | 0.93 | approximately +10 mV | 3.5 | 12 |  |  |  |  |
| CC(C)C(C(=O)OC(C#N)c1cccc(Oc2ccccc2)c1)c1ccc(Cl)cc1 (centres unmarked) [fenvalerate] |  | induced a tail current |  | 1.1817 and 1.18 |  |  |  |  | 85.4 | 9.9 | 31.8 | 289 nM and ~290 nM |

From patent EP3040345A1, “Sodium channel subunits of pollinator insects and uses thereof” (Centre National de la Recherche Scientifique (CNRS), priority 2014, dated 2016)
